In PubChem BioAssay (NCI):
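Test compounds were applied to cells in 96-well plates for 48 hours at 5 doses. Definition used: TGI = concentration required for complete inhibition of growth.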

How the values were obtained:
Assay in all cases: DTP human tumour cell line panel, 48 h
EKVX NSCLC = system: EKVX NSCLC
SW-620 colon = system: SW-620 colon
NCI-H226 lung = system: NCI-H226 lung
DU-145 prostate = system: DU-145 prostate
KM12 colon = system: KM12 colon
T-47D breast = system: T-47D breast
M14 melanoma = system: M14 melanoma
HOP-62 NSCLC = system: HOP-62 NSCLC
BT-549 breast = system: BT-549 breast
MCF7 breast = system: MCF7 breast
786-0 renal = system: 786-0 renal
NCI-H522 lung = system: NCI-H522 lung
NCI-H460 lung = system: NCI-H460 lung
IGROV1 ovarian = system: IGROV1 ovarian
LOX IMVI melanoma = system: LOX IMVI melanoma
COLO 205 colon = system: COLO 205 colon
NCI/ADR-RES ovarian = system: NCI/ADR-RES ovarian

C=CCCCC1CCCNC1=S (centres undefined)
TGI (EKVX NSCLC): > 100 µM
TGI (SW-620 colon): > 100 µM
TGI (NCI-H226 lung): > 100 µM
TGI (DU-145 prostate): > 100 µM
TGI (KM12 colon): > 100 µM
TGI (T-47D breast): > 100 µM
TGI (M14 melanoma): > 100 µM
TGI (HOP-62 NSCLC): > 100 µM
TGI (BT-549 breast): > 100 µM
TGI (MCF7 breast): > 100 µM
TGI (786-0 renal): > 100 µM
TGI (NCI-H522 lung): > 100 µM
TGI (NCI-H460 lung): > 100 µM
TGI (IGROV1 ovarian): > 100 µM

O=C1Nc2ccccc2/C1=C/c1c(Cl)[nH]c2ccc(O)cc12
TGI (EKVX NSCLC): 22.5 µM
TGI (SW-620 colon): 20.7 µM
TGI (NCI-H226 lung): 5.12 µM
TGI (DU-145 prostate): 6.69 µM
TGI (KM12 colon): 15.6 µM
TGI (LOX IMVI melanoma): 27.8 µM
TGI (T-47D breast): 28.3 µM
TGI (COLO 205 colon): 6.4 µM
TGI (M14 melanoma): 11 µM
TGI (HOP-62 NSCLC): 19.1 µM
TGI (BT-549 breast): 18.9 µM
TGI (MCF7 breast): 14.8 µM
TGI (786-0 renal): 25.9 µM
TGI (NCI-H522 lung): 6.74 µM
TGI (NCI-H460 lung): 13.9 µM
TGI (IGROV1 ovarian): 13.5 µM

O=C1NC(=O)C(COCc2ccccc2)C2=C1SCCC2 (centres undefined)
TGI (NCI/ADR-RES ovarian): > 100 µM
TGI (EKVX NSCLC): > 100 µM
TGI (SW-620 colon): > 100 µM
TGI (NCI-H226 lung): > 100 µM
TGI (DU-145 prostate): > 100 µM
TGI (KM12 colon): > 100 µM
TGI (LOX IMVI melanoma): > 100 µM
TGI (COLO 205 colon): > 100 µM
TGI (M14 melanoma): > 100 µM
TGI (HOP-62 NSCLC): > 100 µM
TGI (BT-549 breast): > 100 µM
TGI (MCF7 breast): > 100 µM
TGI (786-0 renal): > 100 µM
TGI (NCI-H522 lung): > 100 µM
TGI (NCI-H460 lung): > 100 µM
TGI (IGROV1 ovarian): > 100 µM

COC(=O)C1=C(CCCCO[Si](C)(C)C(C)(C)C)NC(=O)N2[C@@H](CCOCc3ccccc3)CC[C@H]12
TGI (NCI/ADR-RES ovarian): 42.4 µM
TGI (EKVX NSCLC): > 100 µM
TGI (DU-145 prostate): > 100 µM
TGI (KM12 colon): 44.2 µM
TGI (T-47D breast): > 100 µM
TGI (COLO 205 colon): 32.4 µM
TGI (M14 melanoma): 79.4 µM
TGI (HOP-62 NSCLC): 65.2 µM
TGI (BT-549 breast): 51 µM
TGI (MCF7 breast): > 100 µM
TGI (786-0 renal): 30.9 µM
TGI (NCI-H522 lung): 48.2 µM
TGI (NCI-H460 lung): > 100 µM

CCSc1nc(=[N+]2CCCC2)ss1
TGI (NCI/ADR-RES ovarian): > 100 µM
TGI (EKVX NSCLC): > 100 µM
TGI (SW-620 colon): > 100 µM
TGI (NCI-H226 lung): > 91.3 µM
TGI (DU-145 prostate): > 100 µM
TGI (KM12 colon): > 100 µM
TGI (LOX IMVI melanoma): 55.2 µM
TGI (COLO 205 colon): > 49.3 µM
TGI (M14 melanoma): > 100 µM
TGI (HOP-62 NSCLC): > 100 µM
TGI (BT-549 breast): 95.9 µM
TGI (MCF7 breast): 41.1 µM
TGI (786-0 renal): > 87 µM
TGI (NCI-H522 lung): > 100 µM
TGI (NCI-H460 lung): > 100 µM
TGI (IGROV1 ovarian): > 90 µM

CN(C)CCn1c(=O)c2ccc3c4c(nn3CCN(C)C)c3cc(O)ccc3n(c1=O)c24
TGI (NCI/ADR-RES ovarian): 6.82 µM
TGI (EKVX NSCLC): 0.366 µM
TGI (SW-620 colon): 3.61 µM
TGI (NCI-H226 lung): 1.44 µM
TGI (KM12 colon): 3.5 µM
TGI (LOX IMVI melanoma): 0.101 µM
TGI (T-47D breast): > 39.2 µM
TGI (COLO 205 colon): 0.609 µM
TGI (M14 melanoma): 0.846 µM
TGI (HOP-62 NSCLC): 0.566 µM
TGI (BT-549 breast): 3.66 µM
TGI (MCF7 breast): 0.392 µM
TGI (786-0 renal): 0.424 µM
TGI (NCI-H522 lung): 0.0292 µM
TGI (NCI-H460 lung): 0.254 µM

NC(CCCCNC(=O)CNC(=O)OCc1ccccc1)C(=O)NC(CCCCNC(=O)CNC(=O)OCc1ccccc1)C(=O)NC(CCCCNC(=O)CNC(=O)OCc1ccccc1)C(=O)NC(CCCCNC(=O)CNC(=O)OCc1ccccc1)C(=O)NC(CCCCNC(=O)CNC(=O)OCc1ccccc1)C(=O)NC(CCCCNC(=O)CNC(=O)OCc1ccccc1)C(=O)O (centres undefined)
TGI (SW-620 colon): > 75 µM
TGI (NCI-H226 lung): > 75 µM
TGI (DU-145 prostate): > 75 µM
TGI (LOX IMVI melanoma): > 75 µM
TGI (T-47D breast): > 75 µM
TGI (M14 melanoma): > 75 µM
TGI (HOP-62 NSCLC): > 75 µM
TGI (BT-549 breast): > 75 µM
TGI (MCF7 breast): > 75 µM
TGI (786-0 renal): > 75 µM
TGI (NCI-H522 lung): > 75 µM
TGI (NCI-H460 lung): > 75 µM
TGI (IGROV1 ovarian): > 75 µM

O=c1oc(-c2ccccc2)c(-c2ccccc2)n1-c1ccc(Br)cc1
TGI (EKVX NSCLC): > 100 µM
TGI (SW-620 colon): > 100 µM
TGI (NCI-H226 lung): > 100 µM
TGI (DU-145 prostate): 89.4 µM
TGI (KM12 colon): > 100 µM
TGI (LOX IMVI melanoma): > 100 µM
TGI (T-47D breast): > 100 µM
TGI (COLO 205 colon): > 100 µM
TGI (M14 melanoma): > 100 µM
TGI (HOP-62 NSCLC): > 100 µM
TGI (BT-549 breast): > 100 µM
TGI (MCF7 breast): > 100 µM
TGI (786-0 renal): > 100 µM
TGI (NCI-H522 lung): 62.7 µM
TGI (NCI-H460 lung): > 100 µM
TGI (IGROV1 ovarian): > 100 µM

CC(C)CC(NC(=O)C(CCI)Cc1ccccc1)C(=O)Nc1ccccc1 (centres undefined)
TGI (NCI/ADR-RES ovarian): > 100 µM
TGI (EKVX NSCLC): > 100 µM
TGI (SW-620 colon): > 100 µM
TGI (NCI-H226 lung): > 100 µM
TGI (DU-145 prostate): > 100 µM
TGI (KM12 colon): > 100 µM
TGI (LOX IMVI melanoma): > 100 µM
TGI (COLO 205 colon): > 100 µM
TGI (M14 melanoma): > 100 µM
TGI (BT-549 breast): 66.5 µM
TGI (MCF7 breast): > 100 µM
TGI (786-0 renal): > 100 µM
TGI (NCI-H522 lung): 78.1 µM
TGI (NCI-H460 lung): > 100 µM
TGI (IGROV1 ovarian): > 100 µM

CC1=N[C@](C)(C2CC3C=CC2C3=O)COC1=O (some centres undefined)
TGI (EKVX NSCLC): > 100 µM
TGI (SW-620 colon): > 100 µM
TGI (NCI-H226 lung): > 100 µM
TGI (DU-145 prostate): > 100 µM
TGI (KM12 colon): > 100 µM
TGI (T-47D breast): > 100 µM
TGI (COLO 205 colon): > 100 µM
TGI (M14 melanoma): > 100 µM
TGI (HOP-62 NSCLC): > 100 µM
TGI (BT-549 breast): > 100 µM
TGI (MCF7 breast): > 100 µM
TGI (786-0 renal): > 100 µM
TGI (NCI-H522 lung): > 100 µM
TGI (NCI-H460 lung): > 100 µM
TGI (IGROV1 ovarian): > 100 µM

O=C(Cc1ccccc1)NNc1nc(NNC(=O)c2ccncc2)nc(Nc2cccc(Cl)c2)n1
TGI (NCI/ADR-RES ovarian): > 10 µM
TGI (EKVX NSCLC): > 10 µM
TGI (SW-620 colon): > 10 µM
TGI (DU-145 prostate): > 10 µM
TGI (KM12 colon): > 10 µM
TGI (LOX IMVI melanoma): > 10 µM
TGI (T-47D breast): > 10 µM
TGI (COLO 205 colon): > 10 µM
TGI (M14 melanoma): > 10 µM
TGI (HOP-62 NSCLC): > 10 µM
TGI (BT-549 breast): > 10 µM
TGI (MCF7 breast): > 10 µM
TGI (786-0 renal): > 10 µM
TGI (NCI-H460 lung): > 10 µM
TGI (IGROV1 ovarian): > 10 µM
